Common to all, as to assay: Antimicrobial Susceptibility Test (CLSI), Test Example 3
What all share (assay type): cell-based
Design in all cases: unit not given here

One assay concerns A. baumannii FSAb-029. Particulars: Table 6; strain produces OXA-2, IMP-1. How it is done:
(§1) Antimicrobial Susceptibility Test was performed by the CLSI (Clinical and Laboratory Standards Institute) methods. The agar dilution method for determining antimicrobial susceptibility was carried out using Mueller Hinton-II agar and the amount of inoculation was 10^4CFU/spot. Broth dilution tests were performed using the Mueller Hinton-II broth. All assays were run with the indicated control strains, available from the ATCC (American Type Culture Collection, Rockville, Md.).

For another assay, the system named is A. baumannii FSAb-039. Particulars: Table 6; strain produces OXA-51. How it is done:
as §1

For another assay, the system named is A. baumannii FSAb-056. The note with it: Table 6; strain produces OXA-23, 51. How it is done: as §1
For a further assay, the system named is A. baumannii FSAb-141. The note with it: Table 6; strain produces PER-1, OXA-23, 51, 66. As for the experimental part:
as §1

Another assay deals with E. coli FSEco-054. The note with it: Table 6; strain produces ESBL. How it is done: as §1
Another assay relates to K. pneumoniae BAA-1904. Particulars: Table 6; strain produces KPC-3. As for the experimental part: as §1
For a further assay, the system named is P. aeruginosa FSPa-102. The note with it: Table 6; strain produces IMP-1. How it is done:
as §1

The next assay deals with P. aeruginosa FSPa-141. The note with it: Table 6; strain produces VIM-2. As for the experimental part: as §1

Some results are limits rather than exact numbers.

In the case of `C[C@@H](O)[C@H]1C(=O)N2C(C(=O)O)=C(CN(CCCCNC(=O)c3ccc(O)c(O)c3F)CCCNC(=O)c3ccc(O)c(O)c3F)[C@H](C)[C@H]12` [Compound 104], in the assay with A. baumannii FSAb-029, the “antimicrobial susceptibility, Ab FSAb-029” value was found to be 0.5. In the assay on A. baumannii FSAb-039, the “antimicrobial susceptibility, Ab FSAb-039” value came to 2. Further, the “antimicrobial susceptibility, Ab FSAb-056” value in the assay with A. baumannii FSAb-056 came to 4. In addition, the “antimicrobial susceptibility, Ab FSAb-141” value in the assay with A. baumannii FSAb-141 is given as 1. Also, the “antimicrobial susceptibility, Ec FSEco-054” value in the assay on E. coli FSEco-054 worked out at 1. Moreover, the “antimicrobial susceptibility, Kp BAA-1904” value in the assay on K. pneumoniae BAA-1904 is over 32. In addition, in the assay on P. aeruginosa FSPa-102, the “antimicrobial susceptibility, Pa FSPa-102” value was determined as 2. In the assay on P. aeruginosa FSPa-141, the “antimicrobial susceptibility, Pa FSPa-141” value came to 4.
For `C[C@@H](O)[C@H]1C(=O)N2C(C(=O)O)=C(CN(CCNC(=O)c3ccc(O)c(O)c3Cl)CCNC(=O)c3ccc(O)c(O)c3Cl)[C@H](C)[C@H]12` [Compound 105], in the assay with A. baumannii FSAb-029, the “antimicrobial susceptibility, Ab FSAb-029” value amounted to 0.5. Further, in the assay on A. baumannii FSAb-039, the “antimicrobial susceptibility, Ab FSAb-039” value worked out at 2. In addition, the “antimicrobial susceptibility, Ab FSAb-056” value with A. baumannii FSAb-056 stood at 2. Moreover, in the assay on A. baumannii FSAb-141, the “antimicrobial susceptibility, Ab FSAb-141” value is 0.5. Moreover, the “antimicrobial susceptibility, Ec FSEco-054” value in the assay on E. coli FSEco-054 worked out at 1. The “antimicrobial susceptibility, Kp BAA-1904” value in the assay on K. pneumoniae BAA-1904 worked out at 16. Moreover, in the assay with P. aeruginosa FSPa-102, the “antimicrobial susceptibility, Pa FSPa-102” value was determined as 1. For the same compound, the “antimicrobial susceptibility, Pa FSPa-141” value in the assay on P. aeruginosa FSPa-141 is 0.5.
`C[C@@H](O)[C@H]1C(=O)N2C(C(=O)O)=C(CN(CCCNC(=O)c3ccc(O)c(O)c3Cl)CCNC(=O)c3ccc(O)c(O)c3Cl)[C@H](C)[C@H]12` [Compound 106]: the “antimicrobial susceptibility, Ab FSAb-029” value with A. baumannii FSAb-029 was found to be 0.25. Further, in the assay with A. baumannii FSAb-039, the “antimicrobial susceptibility, Ab FSAb-039” value came to 1. Further, the “antimicrobial susceptibility, Ab FSAb-056” value in the assay on A. baumannii FSAb-056 is recorded as 2. In the assay on A. baumannii FSAb-141, the “antimicrobial susceptibility, Ab FSAb-141” value was 0.5. In addition, the “antimicrobial susceptibility, Ec FSEco-054” value in the assay with E. coli FSEco-054 is 1. Besides, the “antimicrobial susceptibility, Kp BAA-1904” value in the assay on K. pneumoniae BAA-1904 was over 32. Besides, the “antimicrobial susceptibility, Pa FSPa-102” value with P. aeruginosa FSPa-102 came out at 1. Moreover, the “antimicrobial susceptibility, Pa FSPa-141” value in the assay on P. aeruginosa FSPa-141 is 1.
With `C[C@@H](O)[C@H]1C(=O)N2C(C(=O)O)=C(CN(CCCNC(=O)c3ccc(O)c(O)c3Cl)CCCNC(=O)c3ccc(O)c(O)c3Cl)[C@H](C)[C@H]12` [Compound 107], the “antimicrobial susceptibility, Ab FSAb-029” value with A. baumannii FSAb-029 was 0.25. Besides, the “antimicrobial susceptibility, Ab FSAb-039” value with A. baumannii FSAb-039 was 1. Besides, the “antimicrobial susceptibility, Ab FSAb-056” value in the assay with A. baumannii FSAb-056 is recorded as 2. The “antimicrobial susceptibility, Ab FSAb-141” value with A. baumannii FSAb-141 is on record as 0.5. Moreover, the “antimicrobial susceptibility, Ec FSEco-054” value in the assay with E. coli FSEco-054 is on record as 0.5. Also, the “antimicrobial susceptibility, Kp BAA-1904” value in the assay on K. pneumoniae BAA-1904 is over 32. In addition, the “antimicrobial susceptibility, Pa FSPa-102” value with P. aeruginosa FSPa-102 is 1. Further, the “antimicrobial susceptibility, Pa FSPa-141” value in the assay on P. aeruginosa FSPa-141 is listed as 1.
Take `C[C@@H](O)[C@H]1C(=O)N2C(C(=O)O)=C(CN(CCCCNC(=O)c3ccc(O)c(O)c3Cl)CCCNC(=O)c3ccc(O)c(O)c3Cl)[C@H](C)[C@H]12` [Compound 108]: the “antimicrobial susceptibility, Ab FSAb-029” value with A. baumannii FSAb-029 is given as 1. Further, the “antimicrobial susceptibility, Ab FSAb-039” value in the assay on A. baumannii FSAb-039 is recorded as 2. In the assay with A. baumannii FSAb-056, the “antimicrobial susceptibility, Ab FSAb-056” value worked out at 4. Also, the “antimicrobial susceptibility, Ab FSAb-141” value in the assay on A. baumannii FSAb-141 is 1. In addition, the “antimicrobial susceptibility, Ec FSEco-054” value in the assay with E. coli FSEco-054 is 1. In addition, the “antimicrobial susceptibility, Kp BAA-1904” value in the assay on K. pneumoniae BAA-1904 is given as over 32. Moreover, the “antimicrobial susceptibility, Pa FSPa-102” value in the assay on P. aeruginosa FSPa-102 is listed as 2. Moreover, in the assay on P. aeruginosa FSPa-141, the “antimicrobial susceptibility, Pa FSPa-141” value is given as 2.
Consider `C[C@@H](O)[C@H]1C(=O)N2C(C(=O)O)=C(CN(CCCNC(=O)c3ccc(O)c(O)c3)CCNC(=O)c3ccc(O)c(O)c3)[C@H](C)[C@H]12` [Compound 109], for which the “antimicrobial susceptibility, Ab FSAb-029” value in the assay with A. baumannii FSAb-029 stood at 1. The “antimicrobial susceptibility, Ab FSAb-039” value in the assay with A. baumannii FSAb-039 is listed as 2. Further, the “antimicrobial susceptibility, Ab FSAb-056” value in the assay with A. baumannii FSAb-056 worked out at 4. Also, the “antimicrobial susceptibility, Ab FSAb-141” value in the assay with A. baumannii FSAb-141 is 2. The “antimicrobial susceptibility, Ec FSEco-054” value in the assay on E. coli FSEco-054 turned out to be 2. For the same compound, in the assay on K. pneumoniae BAA-1904, the “antimicrobial susceptibility, Kp BAA-1904” value is over 32. In the assay with P. aeruginosa FSPa-102, the “antimicrobial susceptibility, Pa FSPa-102” value was found to be 4. Also, the “antimicrobial susceptibility, Pa FSPa-141” value in the assay with P. aeruginosa FSPa-141 was found to be 4.
Turning to `C[C@@H](O)[C@H]1C(=O)N2C(C(=O)O)=C(CN(CCCNC(=O)c3ccc(O)c(O)c3)CCCNC(=O)c3ccc(O)c(O)c3)[C@H](C)[C@H]12` [Compound 110], the “antimicrobial susceptibility, Ab FSAb-029” value with A. baumannii FSAb-029 is 2. The “antimicrobial susceptibility, Ab FSAb-039” value in the assay with A. baumannii FSAb-039 amounted to 8. In addition, in the assay on A. baumannii FSAb-056, the “antimicrobial susceptibility, Ab FSAb-056” value is recorded as 8. Further, in the assay with A. baumannii FSAb-141, the “antimicrobial susceptibility, Ab FSAb-141” value stood at 4. Besides, in the assay with E. coli FSEco-054, the “antimicrobial susceptibility, Ec FSEco-054” value is 4. Besides, the “antimicrobial susceptibility, Kp BAA-1904” value in the assay with K. pneumoniae BAA-1904 is listed as over 32. In the assay with P. aeruginosa FSPa-102, the “antimicrobial susceptibility, Pa FSPa-102” value is listed as 8. In the assay on P. aeruginosa FSPa-141, the “antimicrobial susceptibility, Pa FSPa-141” value is reported as 16.

For the origin of these results see US10933051B2, “Carbapenem compounds and compositions for the treatment of bacterial infections” (FOB Synthesis, Inc., priority 2017, dated 2021).
